How the values were obtained:
[1] = Convulsions on intravenous clonidine (inventors' finding); type: in vivo; settings: 10 mg/kg
[2] = test system: jumping, a severer withdrawal symptom; settings: intravenous, 0.1-0.10 mg/kg
[3] = test system: withdrawal body shake; settings: intraperitoneal, 0.16 mg/kg; cited from earlier work
[4] = in vivo; cited from earlier work
[5] = in vivo; cited from earlier work; remark: listed apart in the source

Clc1cccc(Cl)c1N=C1NCCN1 [Clonidine, clonidine]
convulsions [1]: causes convulsions
suppression of jumping [2]: fails to suppress jumping
suppression of withdrawal body shake [3]: suppress withdrawal body shake

C[C@]12N[C@H](Cc3ccccc31)c1ccccc12 [Dizocilipine, dizocilpine]
difference between toxic and effective doses [4]: extremely small difference between its toxic and effective doses

CCC(=O)C(CC(C)N(C)C)(c1ccccc1)c1ccccc1 (centres unmarked) [Methadone]
dependence to itself [5]: cause dependence to itself
